In the supplement of paper PMC10307832:

Experiments:
Test in all cases: relative viability (nuclei count vs DMSO), 5 days (fraction); higher = more cells survive
[1] = test system: 201T
In short: (§1)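 Medians of duplicate plates are given as relative viability. That measure is the nuclei count in treated wells divided by the count in vehicle wells. Counts were taken on 4× images of lung cancer cell lines in 1536-well plates, 5 days after pin-tool dosing the day after seeding with one drug alone or a fixed anchor-drug dose plus five library-drug doses (not always all listed) in √10 steps.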

[2] = test system: A-427
In short: as §1

[3] = test system: COR-L 105
In short: as §1

[4] = test system: COR-L23
In short: as §1

[5] = test system: EKVX
In short: as §1

[6] = test system: HARA
In short: as §1

[7] = test system: HCC-15
In short: as §1

[8] = test system: HCC-44
In short: as §1

[9] = test system: HCC-827
In short: as §1

[10] = test system: LCLC-103H
In short: as §1

[11] = test system: LK-2
In short: as §1

[12] = test system: NCI-H1437
In short: as §1

[13] = test system: NCI-H1666
In short: as §1

[14] = test system: NCI-H1792
In short: as §1

[15] = test system: NCI-H1975
In short: as §1

[16] = test system: NCI-H23
In short: as §1

[17] = test system: NCI-H441
In short: as §1

[18] = test system: NCI-H520
In short: as §1

[19] = test system: NCI-H596
In short: as §1

[20] = test system: NCI-H650
In short: as §1

[21] = test system: NCI-H838
In short: as §1

[22] = test system: SK-MES-1
In short: as §1

Molecule `COc1cc(N2CCC(C(N)=O)CC2)ccc1Nc1nc(N)c(Cl)c(Nc2ccccc2S(=O)(=O)C(C)C)n1` [HG-5-88-01] + CS(=O)(=O)N1CCN(Cc2cc3nc(-c4cccc5[nH]ncc45)nc(N4CCOCC4)c3s2)CC1 [Pictilisib] (partner 1 µM) has a relative viability ([1]; first compound 0.04 µM) of 0.71, a relative viability ([1]; first compound 0.1265 µM) of 0.64 and a relative viability ([1]; first compound 0.4 µM) of 0.649. The relative viability ([1]; first compound 1.265 µM) was 0.729, the relative viability ([1]; first compound 4 µM) was 0.739 and the relative viability ([2]; first compound 0.04 µM) was 0.716. The relative viability ([2]; first compound 0.1265 µM) was 0.812, the relative viability ([2]; first compound 0.4 µM) was 0.706 and the relative viability ([2]; first compound 1.265 µM) was 0.914. The relative viability ([2]; first compound 4 µM) was 0.442, the relative viability ([3]; first compound 0.04 µM) was 0.348 and the relative viability ([3]; first compound 0.1265 µM) was 0.537. For the same molecule, the relative viability ([3]; first compound 0.4 µM) was 0.336, the relative viability ([3]; first compound 1.265 µM) was 0.309 and the relative viability ([3]; first compound 4 µM) was 0.342. The relative viability ([4]; first compound 0.04 µM) was 0.629, the relative viability ([4]; first compound 0.1265 µM) was 0.725 and the relative viability ([4]; first compound 0.4 µM) was 0.608. The relative viability ([4]; first compound 1.265 µM) was 0.371, the relative viability ([4]; first compound 4 µM) was 0.353 and the relative viability ([5]; first compound 0.04 µM) was 0.444. For the same molecule, the relative viability ([5]; first compound 0.1265 µM) was 0.426, the relative viability ([5]; first compound 0.4 µM) was 0.372 and the relative viability ([5]; first compound 4 µM) was 0.355. It also gave a relative viability ([6]; first compound 0.04 µM) of 0.438, a relative viability ([6]; first compound 0.1265 µM) of 0.358 and a relative viability ([6]; first compound 0.4 µM) of 0.414. For the same molecule, the relative viability ([6]; first compound 1.265 µM) was 0.411, the relative viability ([6]; first compound 4 µM) was 0.301 and the relative viability ([7]; first compound 0.04 µM) was 0.844. For the same molecule, the relative viability ([7]; first compound 0.1265 µM) was 0.831, the relative viability ([7]; first compound 0.4 µM) was 0.741 and the relative viability ([7]; first compound 1.265 µM) was 0.798. It also gave a relative viability ([7]; first compound 4 µM) of 0.515, a relative viability ([8]; first compound 0.04 µM) of 0.695 and a relative viability ([8]; first compound 0.1265 µM) of 0.569. It also gave a relative viability ([8]; first compound 0.4 µM) of 0.542, a relative viability ([8]; first compound 1.265 µM) of 0.519 and a relative viability ([8]; first compound 4 µM) of 0.375. It also gave a relative viability ([9]; first compound 0.04 µM) of 1.02, a relative viability ([9]; first compound 0.1265 µM) of 0.931 and a relative viability ([9]; first compound 0.4 µM) of 0.924. The relative viability ([9]; first compound 1.265 µM) was 0.552, the relative viability ([9]; first compound 4 µM) was 0.56 and the relative viability ([10]; first compound 0.04 µM) was 0.643. It also gave a relative viability ([10]; first compound 0.1265 µM) of 0.555, a relative viability ([10]; first compound 0.4 µM) of 0.484 and a relative viability ([10]; first compound 1.265 µM) of 0.608. For the same molecule, the relative viability ([10]; first compound 4 µM) was 0.426, the relative viability ([11]; first compound 0.04 µM) was 0.632 and the relative viability ([11]; first compound 0.1265 µM) was 0.522. The relative viability ([11]; first compound 0.4 µM) was 0.546, the relative viability ([11]; first compound 1.265 µM) was 0.386 and the relative viability ([11]; first compound 4 µM) was 0.614. It also gave a relative viability ([12]; first compound 0.04 µM) of 0.519, a relative viability ([12]; first compound 0.1265 µM) of 0.431 and a relative viability ([12]; first compound 0.4 µM) of 0.436. It also gave a relative viability ([12]; first compound 1.265 µM) of 0.416, a relative viability ([12]; first compound 4 µM) of 0.264 and a relative viability ([13]; first compound 0.04 µM) of 0.503. For the same molecule, the relative viability ([13]; first compound 0.1265 µM) was 0.43, the relative viability ([13]; first compound 0.4 µM) was 0.467 and the relative viability ([13]; first compound 1.265 µM) was 0.476. The relative viability ([13]; first compound 4 µM) was 0.34, the relative viability ([14]; first compound 0.04 µM) was 0.372 and the relative viability ([14]; first compound 0.1265 µM) was 0.272. It also gave a relative viability ([14]; first compound 0.4 µM) of 0.313, a relative viability ([14]; first compound 1.265 µM) of 0.253 and a relative viability ([14]; first compound 4 µM) of 0.297. For the same molecule, the relative viability ([15]; first compound 0.04 µM) was 0.32, the relative viability ([15]; first compound 0.1265 µM) was 0.277 and the relative viability ([15]; first compound 0.4 µM) was 0.244. The relative viability ([15]; first compound 1.265 µM) was 0.191, the relative viability ([15]; first compound 4 µM) was 0.17 and the relative viability ([16]; first compound 0.04 µM) was 0.382. For the same molecule, the relative viability ([16]; first compound 0.1265 µM) was 0.572, the relative viability ([16]; first compound 0.4 µM) was 0.469 and the relative viability ([16]; first compound 1.265 µM) was 0.533. For the same molecule, the relative viability ([16]; first compound 4 µM) was 0.35, the relative viability ([17]; first compound 0.04 µM) was 0.435 and the relative viability ([17]; first compound 0.1265 µM) was 0.409. For the same molecule, the relative viability ([17]; first compound 0.4 µM) was 0.494, the relative viability ([17]; first compound 1.265 µM) was 0.352 and the relative viability ([17]; first compound 4 µM) was 0.536. For the same molecule, the relative viability ([18]; first compound 0.04 µM) was 0.366, the relative viability ([18]; first compound 0.1265 µM) was 0.273 and the relative viability ([18]; first compound 0.4 µM) was 0.235. The relative viability ([18]; first compound 1.265 µM) was 0.299, the relative viability ([18]; first compound 4 µM) was 0.36 and the relative viability ([19]; first compound 0.04 µM) was 0.447. It also gave a relative viability ([19]; first compound 0.1265 µM) of 0.42, a relative viability ([19]; first compound 0.4 µM) of 0.382 and a relative viability ([19]; first compound 1.265 µM) of 0.414. It also gave a relative viability ([19]; first compound 4 µM) of 0.312, a relative viability ([20]; first compound 0.04 µM) of 0.88 and a relative viability ([20]; first compound 0.1265 µM) of 0.925. It also gave a relative viability ([20]; first compound 0.4 µM) of 0.864, a relative viability ([20]; first compound 1.265 µM) of 0.743 and a relative viability ([20]; first compound 4 µM) of 0.685. For the same molecule, the relative viability ([21]; first compound 0.04 µM) was 0.312, the relative viability ([21]; first compound 0.1265 µM) was 0.503 and the relative viability ([21]; first compound 0.4 µM) was 0.337. It also gave a relative viability ([21]; first compound 1.265 µM) of 0.393, a relative viability ([21]; first compound 4 µM) of 0.383 and a relative viability ([22]; first compound 0.04 µM) of 0.37. For the same molecule, the relative viability ([22]; first compound 0.1265 µM) was 0.373, the relative viability ([22]; first compound 0.4 µM) was 0.354 and the relative viability ([22]; first compound 1.265 µM) was 0.282. The relative viability ([22]; first compound 4 µM) was 0.299.
